Assay: CHI Log D procedure
Format: physicochemical
Conditions: pH 7.4

SMILES	CHI Log D
CC(=O)N[C@@H](Cc1ccccc1)C(=O)N[C@@H](CC(=O)O)C(=O)N[C@@H](C)C(=O)N[C@]1(C)CN(C)C(=O)OCC=CCCCCCC[C@@](C)(C(=O)N[C@@H](Cc2ccccc2)C(=O)N[C@@H](Cc2c[nH]c3ccccc23)C(=O)N[C@@H](CCC(N)=O)C(N)=O)NC(=O)[C@H](C(C)C)NC(=O)[C@H](Cc2ccccc2)NC(=O)[C@H](C)NC(=O)[C@H](C)NC(=O)[C@H](CC(=O)O)NC(=O)[C@H](CC(=O)O)NC1=O (single isomer, unassigned) [I-44, Ac-Phe-Asp-Ala-RgN-Asp-Asp-Ala-Ala-Phe-Val-S8-Phe-Trp-Gln-NH2]	1.312
CC(=O)N[C@@H](Cc1ccccc1)C(=O)N[C@@H](CC(=O)O)C(=O)N[C@@H](C)C(=O)N[C@]1(C)CN(C)C(=O)OCC=CCCCCC[C@@](C)(C(=O)N[C@@H](Cc2ccccc2)C(=O)N[C@@H](Cc2c[nH]c3ccccc23)C(=O)N[C@@H](CCC(N)=O)C(N)=O)NC(=O)[C@H](C(C)C)NC(=O)[C@H](Cc2ccccc2)NC(=O)[C@H](C)NC(=O)[C@H](C)NC(=O)[C@H](CC(=O)O)NC(=O)[C@H](CC(=O)O)NC1=O (single isomer, unassigned) [I-46, Ac-Phe-Asp-Ala-RgN-Asp-Asp-Ala-Ala-Phe-Val-S7-Phe-Trp-Gln-NH2]	1.205
CC(=O)N[C@@H](Cc1ccccc1)C(=O)N[C@@H](CC(=O)O)C(=O)N[C@]1(C)CCCCCCC=CCCC[C@@](C)(C(=O)N[C@@H](C)C(=O)N[C@@H](Cc2ccccc2)C(=O)N[C@@H](Cc2c[nH]c3ccccc23)C(=O)N[C@@H](CCC(N)=O)C(N)=O)NC(=O)[C@H](Cc2ccccc2)NC(=O)[C@H](C)NC(=O)[C@H](C)NC(=O)[C@H](CC(=O)O)NC(=O)[C@H](CC(=O)O)NC(=O)[C@H](C)NC1=O (single isomer, unassigned) [I-48, Ac-Phe-Asp-R8-Ala-Asp-Asp-Ala-Ala-Phe-S5-Ala-Phe-Trp-Gln-NH2]	1.37
CC(=O)N[C@@H](Cc1ccccc1)C(=O)N[C@@H](CC(=O)O)C(=O)N[C@]1(C)CCN(C)C(=O)OCC=CCCCCC[C@@](C)(C(=O)N[C@@H](C)C(=O)N[C@@H](Cc2ccccc2)C(=O)N[C@@H](Cc2c[nH]c3ccccc23)C(=O)N[C@@H](CCC(N)=O)C(N)=O)NC(=O)[C@H](Cc2ccccc2)NC(=O)[C@H](C)NC(=O)[C@H](C)NC(=O)[C@H](CC(=O)O)NC(=O)[C@H](CC(=O)O)NC(=O)[C@H](C)NC1=O (single isomer, unassigned) [I-50, Ac-Phe-Asp-RdN-Ala-Asp-Asp-Ala-Ala-Phe-S7-Ala-Phe-Trp-Gln-NH2]	1.201
CC(=O)N[C@@H](Cc1ccccc1)C(=O)N[C@@H](CC(=O)O)C(=O)N[C@@H](C)C(=O)N[C@]1(C)CCCCCCC=CCOC(=O)N2CC[C@@](C(=O)N[C@@H](Cc3ccccc3)C(=O)N[C@@H](Cc3c[nH]c4ccccc34)C(=O)N[C@@H](CCC(N)=O)C(N)=O)(C2)NC(=O)[C@H](C(C)C)NC(=O)[C@H](Cc2ccccc2)NC(=O)[C@H](C)NC(=O)[C@H](C)NC(=O)[C@@](C)(Cc2ccccc2)NC(=O)[C@H](CC(=O)O)NC1=O (single isomer, unassigned) [I-57, Ac-Phe-Asp-Ala-R8-Asp-aMeDF-Ala-Ala-Phe-Val-PyrS-Phe-Trp-Gln-NH2]	2.152
CC(=O)N[C@@H](Cc1ccccc1)C(=O)N[C@@H](CC(=O)O)C(=O)N[C@@H](C)C(=O)N[C@]1(C)CCCCCCC=CCOC(=O)N2CC[C@@](C(=O)N[C@@H](Cc3ccc(O)cc3)C(=O)N[C@@H](Cc3c[nH]c4ccccc34)C(=O)N[C@@H](CCC(N)=O)C(N)=O)(C2)NC(=O)[C@H](C(C)C)NC(=O)[C@H](Cc2ccccc2)NC(=O)[C@H](C)NC(=O)[C@H](C)NC(=O)[C@H](CC(=O)O)NC(=O)[C@H](CC(=O)O)NC1=O (single isomer, unassigned) [I-63, Ac-Phe-Asp-Ala-R8-Asp-Asp-Ala-Ala-Phe-Val-PyrS-Tyr-Trp-Gln-NH2]	1.019
CC[C@H](C)[C@H](NC(=O)[C@H](CC(=O)O)NC(=O)[C@H](C)NC(C)=O)C(=O)N[C@]1(C)CCN(C)C(=O)OCC=CCCCCC[C@@](C)(C(=O)N[C@@H](Cc2ccccc2)C(=O)N[C@@H](Cc2c[nH]c3ccccc23)C(=O)N[C@@H](Cc2c[nH]cn2)C(N)=O)NC(=O)[C@H](CCC(N)=O)NC(=O)[C@H](Cc2ccccc2)NC(=O)[C@H](C)NC(=O)[C@H](C)NC(=O)[C@H](CCC(C)C)NC(=O)[C@H](CC(=O)O)NC1=O (single isomer, unassigned) [I-71, Ac-Ala-Asp-Ile-RdN-Asp-hLeu-Ala-Ala-Phe-Gln-S7-Phe-Trp-His-NH2]	1.686

Same assay, conditions: pH 7.4, CHI Log D

SMILES	chromatographic logD
CC(=O)N[C@@H](Cc1ccccc1)C(=O)N[C@@H](CC(=O)O)C(=O)N[C@@H](C)C(=O)N[C@]1(C)CN(C)C(=O)OCC=CCCCCCC[C@@](C)(C(=O)N[C@@H](Cc2ccccc2)C(=O)N[C@@H](Cc2c[nH]c3ccccc23)C(=O)N[C@@H](CCC(N)=O)C(N)=O)NC(=O)[C@H](C(C)C)NC(=O)[C@H](Cc2ccccc2)NC(=O)[C@H](C)NC(=O)[C@H](C)NC(=O)[C@H](CC(=O)O)NC(=O)[C@H](CC(=O)O)NC1=O (single isomer, unassigned) [I-43, Ac-Phe-Asp-Ala-RgN-Asp-Asp-Ala-Ala-Phe-Val-S8-Phe-Trp-Gln-NH2]	1.31
CC(=O)N[C@@H](Cc1ccccc1)C(=O)N[C@@H](CC(=O)O)C(=O)N[C@@H](C)C(=O)N[C@]1(C)CN(C)C(=O)OCC=CCCCCC[C@@](C)(C(=O)N[C@@H](Cc2ccccc2)C(=O)N[C@@H](Cc2c[nH]c3ccccc23)C(=O)N[C@@H](CCC(N)=O)C(N)=O)NC(=O)[C@H](C(C)C)NC(=O)[C@H](Cc2ccccc2)NC(=O)[C@H](C)NC(=O)[C@H](C)NC(=O)[C@H](CC(=O)O)NC(=O)[C@H](CC(=O)O)NC1=O (single isomer, unassigned) [I-45, Ac-Phe-Asp-Ala-RgN-Asp-Asp-Ala-Ala-Phe-Val-S7-Phe-Trp-Gln-NH2]	1.21
CC(=O)N[C@@H](Cc1ccccc1)C(=O)N[C@@H](CC(=O)O)C(=O)N[C@]1(C)CCCCCCC=CCCC[C@@](C)(C(=O)N[C@@H](C)C(=O)N[C@@H](Cc2ccccc2)C(=O)N[C@@H](Cc2c[nH]c3ccccc23)C(=O)N[C@@H](CCC(N)=O)C(N)=O)NC(=O)[C@H](Cc2ccccc2)NC(=O)[C@H](C)NC(=O)[C@H](C)NC(=O)[C@H](CC(=O)O)NC(=O)[C@H](CC(=O)O)NC(=O)[C@H](C)NC1=O (single isomer, unassigned) [I-47, Ac-Phe-Asp-R8-Ala-Asp-Asp-Ala-Ala-Phe-S5-Ala-Phe-Trp-Gln-NH2]	1.28
CC(=O)N[C@@H](Cc1ccccc1)C(=O)N[C@@H](CC(=O)O)C(=O)N[C@]1(C)CCN(C)C(=O)OCC=CCCCCC[C@@](C)(C(=O)N[C@@H](C)C(=O)N[C@@H](Cc2ccccc2)C(=O)N[C@@H](Cc2c[nH]c3ccccc23)C(=O)N[C@@H](CCC(N)=O)C(N)=O)NC(=O)[C@H](Cc2ccccc2)NC(=O)[C@H](C)NC(=O)[C@H](C)NC(=O)[C@H](CC(=O)O)NC(=O)[C@H](CC(=O)O)NC(=O)[C@H](C)NC1=O (single isomer, unassigned) [I-49, Ac-Phe-Asp-RdN-Ala-Asp-Asp-Ala-Ala-Phe-S7-Ala-Phe-Trp-Gln-NH2]	1.18
CC(=O)N[C@@H](Cc1ccccc1)C(=O)N[C@@H](CC(=O)O)C(=O)N[C@@H](C)C(=O)N[C@]1(C)CCCCCCC=CCOC(=O)N2CC[C@@](C(=O)N[C@@H](Cc3ccccc3)C(=O)N[C@@H](Cc3c[nH]c4ccccc34)C(=O)N[C@@H](CCC(N)=O)C(N)=O)(C2)NC(=O)[C@H](C(C)C)NC(=O)[C@H](Cc2ccccc2)NC(=O)[C@H](C)NC(=O)[C@H](C)NC(=O)[C@@](C)(Cc2ccccc2)NC(=O)[C@H](CC(=O)O)NC1=O (single isomer, unassigned) [I-56, Ac-Phe-Asp-Ala-R8-Asp-aMeDF-Ala-Ala-Phe-Val-PyrS-Phe-Trp-Gln-NH2]	2.16
CC(=O)N[C@@H](Cc1ccccc1)C(=O)N[C@@H](CC(=O)O)C(=O)N[C@@H](C)C(=O)N[C@]1(C)CCCCCCC=CCOC(=O)N2CC[C@@](C(=O)N[C@@H](Cc3ccccc3)C(=O)N[C@@H](Cc3c[nH]c4ccccc34)C(=O)N[C@@H](CCC(N)=O)C(N)=O)(C2)NC(=O)[C@H](C(C)C)NC(=O)[C@H](Cc2ccccc2)NC(=O)[C@H](C)NC(=O)[C@H](C)NC(=O)[C@H](CCC(N)=O)NC(=O)[C@H](CC(=O)O)NC1=O (single isomer, unassigned) [I-58, Ac-Phe-Asp-Ala-R8-Asp-Gln-Ala-Ala-Phe-Val-PyrS-Phe-Trp-Gln-NH2]	1.5
CC(=O)N[C@@H](Cc1ccccc1)C(=O)N[C@@H](CC(=O)O)C(=O)N[C@@H](C)C(=O)N[C@]1(C)CCCCCCC=CCOC(=O)N2CC[C@@](C(=O)N[C@@H](CC3CCCCC3)C(=O)N[C@@H](Cc3c[nH]c4ccccc34)C(=O)N[C@@H](CCC(N)=O)C(N)=O)(C2)NC(=O)[C@H](C(C)C)NC(=O)[C@H](Cc2ccccc2)NC(=O)[C@H](C)NC(=O)[C@H](C)NC(=O)[C@H](CC(=O)O)NC(=O)[C@H](CC(=O)O)NC1=O (single isomer, unassigned) [I-60, Ac-Phe-Asp-Ala-R8-Asp-Asp-Ala-Ala-Phe-Val-PyrS-Cha-Trp-Gln-NH2]	1.36
CC(=O)N[C@@H](Cc1ccccc1)C(=O)N[C@@H](CC(=O)O)C(=O)N[C@@H](C)C(=O)N[C@]1(C)CCCCCCC=CCOC(=O)N2CC[C@@](C(=O)N[C@@H](Cc3ccc(O)cc3)C(=O)N[C@@H](Cc3c[nH]c4ccccc34)C(=O)N[C@@H](CCC(N)=O)C(N)=O)(C2)NC(=O)[C@H](C(C)C)NC(=O)[C@H](Cc2ccccc2)NC(=O)[C@H](C)NC(=O)[C@H](C)NC(=O)[C@H](CC(=O)O)NC(=O)[C@H](CC(=O)O)NC1=O (single isomer, unassigned) [I-62, Ac-Phe-Asp-Ala-R8-Asp-Asp-Ala-Ala-Phe-Val-PyrS-Tyr-Trp-Gln-NH2]	0.981
CC[C@H](C)[C@H](NC(=O)[C@H](CC(=O)O)NC(=O)[C@H](C)NC(C)=O)C(=O)N[C@]1(C)CCN(C)C(=O)OCC=CCCCCC[C@@](C)(C(=O)N[C@@H](Cc2ccccc2)C(=O)N[C@@H](Cc2c[nH]c3ccccc23)C(=O)N[C@@H](Cc2c[nH]cn2)C(N)=O)NC(=O)[C@H](CCC(N)=O)NC(=O)[C@H](Cc2ccccc2)NC(=O)[C@H](C)NC(=O)[C@H](C)NC(=O)[C@H](CCC(C)C)NC(=O)[C@H](CC(=O)O)NC1=O (single isomer, unassigned) [I-70, Ac-Ala-Asp-Ile-RdN-Asp-hLeu-Ala-Ala-Phe-Gln-S7-Phe-Trp-His-NH2]	1.61
